Results on 22 molecules are retold here after article PMC11447181 (Nature Communications, 2024).

For one experiment, the target named is T1, hSLC19A3-wt (Homo sapiens, UniProt Q9BZV2).
T1 construct: full-length, wildtype human SLC19A3; made in house; host or cells: Expi293F
The experiment in a line: nanoDSF thermal shift assay / apparent binding affinity, wildtype transporter. The following applies: for thermal shift / interaction with hSLC19A3, in words: thermal shift screen at 20 μM and 200 μM compound.

Experiment [1] concerns the target T2, hSLC19A3-wt overexpressed in Expi293F cells (Homo sapiens, UniProt Q9BZV2).
T2 construct: full-length, wildtype human SLC19A3; expressed in transfected cells; host or cells: Expi293F
The experiment in a line: Mass spectrometry-based cellular thiamine-d3 uptake assay. It is filed as cell-based. The following applies: 200 μM compound, 2 μM thiamine-d3, 5 min, n = 3. The protocol: The cells were then pelleted for 5 min at 250×g and resuspended in 1×PBS (pH 7.4) at a cell density of 2 million cells per mL. The cell suspension was subsequently transferred to a 96-deep well plate in three technical replicates per condition (n = 3, 1 mL per well, corresponding to 2 million cells per condition). 200 μM of the selected compounds were added to the respective wells and the cells were incubated for 1 min on a shaking platform. […] Afterwards, the cells were pelleted for 5 min at 500×g and washed 3× with 1 mL 1×PBS (pH7.4), before transferring them to a fresh 96-deep well plate. The cell pellets were stored at –70 °C. For the LC-MS/MS analysis, the samples were extracted by adding 500 µL of a mixture of H2O:MeOH:ACN (1:1:1, v/v), containing 5% (v/v) formic acid. After vortexing and ultrasonication in a water bath for 5 min at 4 °C, samples were incubated for 20 min at –20 °C. […] The supernatants were then transferred for LC-MS analysis, which was initiated within one hour after sample preparation. LC-MS/MS analysis was performed on a Vanquish UHPLC system coupled to an Orbitrap Exploris 240 high-resolution mass spectrometer (Thermo Fisher Scientific, MA, USA) in positive ESI (electrospray ionization) mode. Chromatographic separation was carried out on an Atlantis Premier BEH Z-HILIC column (Waters, MA, USA; 2.1 mm × 100 mm, 1.7 µm) at a flow rate of 0.25 mL/min. The mobile phase consisted of water:acetonitrile (9:1, v/v; mobile phase phase A) and acetonitrile:water (9:1, v/v; mobile phase B), which were modified with a total buffer concentration of 10 mM ammonium formate. The aqueous portion of each mobile phase was adjusted to pH 3.0 via addition of formic acid. The following gradient (8 min total run time including re-equilibration) was applied (time [min]/%B): 0/90, 3/85, 3.5/60, 4/60, 5/90, 8/90. Column temperature was maintained at 40 °C, the autosampler was set to 4 °C and sample injection volume was set to 3 µL. Analytes were recorded via a full scan with a mass resolving power of 120,000 over a mass range from 60 to 900 m/z (scan time: 100 ms, RF lens: 70%).
All experimental samples were measured in a randomized manner. Pooled quality control (QC) samples were prepared by mixing equal aliquots from each processed sample. Multiple QCs were injected at the beginning of the analysis in order to equilibrate the analytical system. A QC sample was analyzed after every 6th experimental sample to monitor instrument performance throughout the sequence. For determination of background signals and subsequent background subtraction, an additional processed blank sample was recorded. Data was processed using TraceFinder 5.1 and raw peak area data was exported for relative metabolite quantification.

The test system of a further experiment is SLC19A3. The following applies: cited from earlier work.
The target of experiment [2] is glycosylation-free mutant of hSLC19A3 (hSLC19A3-gf) (human, UniProt Q9BZV2 1-496, Asn45 mutated to glutamine | Asn166 mutated to glutamine). Kind of experiment: BLI. For orientation: BLI is a label-free optical method that tracks binding on a fibre tip over time.

“Also recorded” adds a separate entry of the source.

Chain of glycosylation-free mutant of hSLC19A3 (hSLC19A3-gf) (Q9BZV2 other isoform, or with tags, fused parts or gaps with the stated changes): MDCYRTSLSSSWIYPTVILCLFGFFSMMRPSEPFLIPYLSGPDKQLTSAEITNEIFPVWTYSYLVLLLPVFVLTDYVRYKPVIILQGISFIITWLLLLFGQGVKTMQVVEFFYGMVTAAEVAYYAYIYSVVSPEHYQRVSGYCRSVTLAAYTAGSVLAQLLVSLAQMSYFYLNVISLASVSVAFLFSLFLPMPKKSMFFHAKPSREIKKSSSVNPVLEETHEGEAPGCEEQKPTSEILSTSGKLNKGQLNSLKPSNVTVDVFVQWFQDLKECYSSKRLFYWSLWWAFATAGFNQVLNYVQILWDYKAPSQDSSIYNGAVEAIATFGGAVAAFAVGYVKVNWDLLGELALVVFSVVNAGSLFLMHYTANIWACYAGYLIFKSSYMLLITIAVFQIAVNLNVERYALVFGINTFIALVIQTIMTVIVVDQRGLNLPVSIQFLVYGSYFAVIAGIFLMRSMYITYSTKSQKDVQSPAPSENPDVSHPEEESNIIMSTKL
T2 sequence (Q9BZV2 with tags, fused parts or gaps): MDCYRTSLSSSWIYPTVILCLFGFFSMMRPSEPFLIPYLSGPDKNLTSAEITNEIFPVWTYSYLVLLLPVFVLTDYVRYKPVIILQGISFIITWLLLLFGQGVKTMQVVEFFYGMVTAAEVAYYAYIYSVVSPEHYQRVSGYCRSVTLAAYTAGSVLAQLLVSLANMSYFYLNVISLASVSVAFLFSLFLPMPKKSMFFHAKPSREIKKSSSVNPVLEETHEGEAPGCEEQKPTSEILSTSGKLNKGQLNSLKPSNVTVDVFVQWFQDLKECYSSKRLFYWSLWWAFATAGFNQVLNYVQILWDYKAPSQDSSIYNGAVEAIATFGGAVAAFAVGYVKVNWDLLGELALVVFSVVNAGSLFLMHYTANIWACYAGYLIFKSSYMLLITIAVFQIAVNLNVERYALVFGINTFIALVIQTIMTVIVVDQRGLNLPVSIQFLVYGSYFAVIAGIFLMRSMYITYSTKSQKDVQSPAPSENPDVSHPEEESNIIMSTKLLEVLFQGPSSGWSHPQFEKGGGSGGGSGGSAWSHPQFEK
T1 sequence (Q9BZV2 with tags, fused parts or gaps): as above

On to `CCN(CCO)CCCC(C)Nc1ccnc2cc(Cl)ccc12` (stereo not drawn) [hydroxychloroquine], for which, on hSLC19A3-wt, the Kd amounted to 170 ± 55 nM and the “thermal shift / interaction with hSLC19A3, in words” value (“thermal shift / interaction” for short) is on record as “strongly stabilises hSLC19A3”.
On to `Cc1ccc(NC(=O)c2ccc(CN3CCN(C)CC3)cc2)cc1Nc1nccc(-c2cccnc2)n1` [imatinib], for which the “inhibition of thiamine uptake through hSLC19A3, in words” value (from here on “inhibition”) in experiment [1] is listed as “interfered with thiamine-uptake through hSLC19A3; also recorded: inhibitory effect comparable to the one of fedratinib”. Further, on hSLC19A3-wt, the Kd is 4400 ± 500 nM and the “thermal shift / interaction” value is recorded as “strongly stabilized hSLC19A3”.
In the case of `CN(C)CCCC1(c2ccc(F)cc2)OCc2cc(C#N)ccc21` (stereo not drawn) [citalopram], the “inhibition” value in experiment [1] is on record as “interferes with thiamine uptake”. Also, the “thermal shift / interaction” value on hSLC19A3-wt was “also interact with hSLC19A3”.
In the case of `Cc1ncc(C[n+]2csc(CCO)c2C)c(=O)[nH]1` [oxythiamine], the “thermal shift / interaction” value at hSLC19A3-wt is “strongly decreased affinity and a lower thermostabilisation of the transporter; also recorded: stabilises the transporter only weakly”.
For `CN(C)CCC=C1c2ccccc2CCc2ccccc21` [amitriptyline], the “inhibition” value in experiment [1] was “inhibit its thiamine transport activity”. The “thermal shift / interaction” value at hSLC19A3-wt was “destabilize the transporter in a concentration-dependent manner”.
`Cc1nc(Nc2ncc(C(=O)Nc3c(C)cccc3Cl)s2)cc(N2CCN(CCO)CC2)n1` [dasatinib]: the “inhibition” value in experiment [1] is “interfered with thiamine-uptake through hSLC19A3”.
As for `CN[C@H]1CC[C@@H](c2ccc(Cl)c(Cl)c2)c2ccccc21` [sertraline], at hSLC19A3-wt (at low micromolar concentrations, nanoDSF), the ΔTm is 2.5 ± 0.4 °C.
In the case of `CN(C)CCC=C1c2ccccc2COc2ccccc21` [doxepin], the “inhibition” value in experiment [1] was “inhibit its thiamine transport activity”. For the same molecule, the “thermal shift / interaction” value on hSLC19A3-wt is recorded as “destabilize the transporter in a concentration-dependent manner”.
As to `CN(C)CCCN1c2ccccc2CCc2ccccc21` [imipramine], the “inhibition” value in experiment [1] was “inhibit its thiamine transport activity”. Also, at hSLC19A3-wt, the “thermal shift / interaction” value is reported as “destabilize the transporter in a concentration-dependent manner”.
On to `O=C(O)CCCC[C@@H]1SC[C@@H]2NC(=O)N[C@@H]21` [biotin], for which the “thermal shift / interaction” value on hSLC19A3-wt is given as “does not interact with the transporter”.
With `CCc1nc(N)nc(N)c1-c1ccc(Cl)cc1` [pyrimethamine], the ΔTm at 20 µM at hSLC19A3-wt (read-out: ΔTm (thermostabilisation)) came to 9.3 ± 0.5 °C.
Take `CCS(=O)(=O)N1CC(CC#N)(n2cc(-c3ncnc4[nH]ccc34)cn2)C1` [baricitinib]: the “thermal shift / interaction” value on hSLC19A3-wt is “did not stabilise hSLC19A3”.
With `Cc1ncc(C[n+]2csc(CCOP(=O)(O)O)c2C)c(N)n1` [thiamine-p, thiamine monophosphate], on hSLC19A3-wt, the “thermal shift / interaction” value was “strongly reduced affinity”.
On to `COc1cc2ncnc(Nc3ccc(F)c(Cl)c3)c2cc1OCCCN1CCOCC1` [gefitinib], for which, in experiment [1], the “inhibition” value is reported as “interfered with thiamine-uptake through hSLC19A3”.
Turning to `COc1cc(Cc2cnc(N)nc2N)cc(OC)c1OC` [trimethoprim], the “substrate status at the transporter” value in the experiment with SLC19A3 is “xenobiotic substrates of the transporter”.
For the molecule `CCCc1ncc(C[n+]2ccccc2C)c(N)n1` [amprolium], at hSLC19A3-wt, the “thermal shift / interaction” value is on record as “strongly stabilised the transporter against heat unfolding in a concentration-dependent manner”.
The same measure, in the same setting: then `Cc1ncc(C[n+]2csc(CCO[P@](=O)(O)OP(=O)(O)O)c2C)c(N)n1` [thiamine-pp, thiamine pyrophosphate], with “does not stabilise the transporter at all”.
On to `C[C@@H]1CCN(C(=O)CC#N)C[C@@H]1N(C)c1ncnc2[nH]ccc12` [tofacitinib], for which the “inhibition” value in experiment [1] is recorded as “shows no inhibitory effect on thiamine transport”. The “thermal shift / interaction” value on hSLC19A3-wt was “stabilising hSLC19A3”.
As for `N#CCNC(=O)c1ccc(-c2ccnc(Nc3ccc(N4CCOCC4)cc3)n2)cc1` [momelotinib], the “thermal shift / interaction” value on hSLC19A3-wt is given as “did not stabilise hSLC19A3”.

B1: nanobody Nb3.7 (VHH)
VHH: QVQLVESGGGLVQPGDSLRLSCAASGRTFSINAMAWFRQAPGKEREYVAQISWTGGNTYYAESVKGRFTISRDNAKNTVYLQMISLKPEDTAVYYCAADSGGIRLGASRWNYWGQGTQVTVSS
Molecule B1 had a Kd in experiment [2] of 110 nM.

B2: nanobody Nb3.4 (VHH)
VHH: QVQLVESGGGLVQAGDSLRLSCAASGLTFSRYDMAWFRQAPGKEREFVAAITWTGSITDYADSVKGRFTISRDNAKNTIYLQMNSLKPEDTAVYYCAAAQVPYGSTLKFNLRTLFGSWGQGTQVTVSS
Regarding B2, the Kd in experiment [2] worked out at 280 nM.

B3: nanobody Nb3.3 (VHH)
VHH: QVQLVESGGGLVQAGDSLRLSCAASGRTFSNYYMAWFRQAPGKEREFVAAIRLSYGSTYYADSVRGRFTISKDNAKNTVNLRMNSLKSEDTAIYYCAAAEDRWALAVRTATTYNYWGQGTQVTVSS
For the molecule B3, the Kd in experiment [2] stood at 200 nM.

The term ΔTm denotes the shift of the melting midpoint relative to a reference.
